PubChem BioAssay (NCI)
Several values for one entry are separate records, joined by “and”; a condition that tells them apart may be missing. Equal values may be shown once.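 96-well plates; 48 h exposure; 5 concentrations. Endpoints by linear interpolation between flanking doses. Not reached: highest tested concentration assigned. GI50 = concentration required for 50% inhibition of growth. Definition used: TGI = concentration required for complete inhibition of growth.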

Key:
Assay in all cases: NCI tumour cell line growth inhibition, 48 h
[1] = tested on: KM20L2 colon
[2] = tested on: DLD-1 colon
[3] = tested on: HOP-18 NSCLC
[4] = tested on: XF 498 CNS
[5] = tested on: LXFL 529 NSCLC
[6] = tested on: DMS 114 small cell lung
[7] = tested on: M19-MEL melanoma
[8] = tested on: P388/ADR leukemia
[9] = tested on: MDA-N
[10] = tested on: SN12K1 renal
[11] = tested on: RXF-631 renal

SMILES | TGI [1] [µM] | TGI [2] [µM] | TGI [3] [µM] | TGI [4] [µM] | TGI [5] [µM] | TGI [6] [µM] | TGI [7] [µM] | TGI [9] | also measured
COC(=O)CCC(NC(=S)N/N=C(\C)c1ccc[nH]1)C(=O)OC (centres undefined) | > 100 | > 100 | > 100 | > 100 | > 100 | > 100 | > 100 |  | 
O=S(=O)(O)O | 2280 | > 3000 | 1680 |  |  |  |  | 360 µM | TGI [8]: > 3000 µM; TGI [10]: 1380 µM
CCCn1c(SCCSc2c3ccccc3c(-c3nc(F)nc(F)n3)n2CCC)c2ccccc2c1-c1nc(F)nc(F)n1 | > 100 | 40.4 | > 100 |  | > 100 |  |  |  | 
CN(C)Cc1ccc(-c2cc3onc(-c4ccccc4)c3c(=O)n2C)cc1 |  |  |  |  |  |  |  | 44.5 µM | 
COc1cc(CNc2nc3c(N)cc(C(F)(F)F)cc3nc2-c2ccccc2)cc(OC)c1OC | > 100 | > 100 | > 100 | 86.2 | > 100 | > 100 | > 100 |  | TGI [11]: > 100 µM; GI50 [3]: > 100 µM
C=CC(=O)N1C/C(=C\c2ccc(Cl)c(Cl)c2)C(=O)/C(=C/c2ccc(Cl)c(Cl)c2)C1 | 0.545 | 0.154 | 1.38 |  | 0.345 | 0.309 | 0.4 |  | TGI [11]: 1.89 µM
COc1cc2c(cc1OC)C(C(=O)O)C(c1ccccc1)N(C)C2=O (centres undefined) | > 100 | > 100 | > 100 | > 100 | > 100 | > 100 | > 100 |  | 
CC(C)N(C(=O)c1cccc(C(=O)N(C(C)C)C(C)C)c1)C(C)C | > 100 | > 100 | > 100 | > 100 | > 100 | > 100 | > 100 |  | TGI [11]: > 100 µM
O=c1c2c([nH]c3nccn13)CCC2 |  |  |  |  |  |  |  | > 10 µM | 
O=[N+]([O-])c1cccc(/C=N/NC2=CS(=O)(=O)C=C2)c1 |  |  |  |  |  |  |  | > 100 µM | 
C/C(CC(=O)Nc1cccc(Cl)c1C)=N\NC(N)=S | > 100 | > 100 |  | > 100 | > 100 |  | > 100 |  | TGI [11]: > 100 µM
O=C1C2C(C(=O)N1c1ccccc1)C1c3ccccc3C2C2C(=O)N(c3ccccc3)C(=O)C21 (centres undefined) | 42.8 | 8.92 | > 100 |  | > 100 | 27 | > 100 |  | 
ClC(Cl)=C(Cl)C1(Cl)CC1COCc1ccccc1 (centres undefined) | > 100 | > 100 |  | 73.6 | > 100 | 59.6 | 73.6 |  | 
C[N+]1=c2c3cccc4cccc(c(=O)n2CC1)c43 | 43.3 | 44 | 54.1 |  | 42.4 | 29.2 | 31.6 |  | TGI [11]: > 100 µM
COc1ccc(-c2c(C)c(C(=O)O)nc(-c3ccc4c(O)c(OC)c5c(c4n3)=NC(C)(C)N=5)c2N)c(O)c1OC |  |  |  |  |  |  |  | 39.9 µM | 
C[C@H]1[C@H](C)N1CC(O)Cn1ccnc1[N+](=O)[O-] (some centres undefined) |  |  |  |  |  |  |  | > 100 µM | 
O=c1cc(-c2ccccn2)[nH]c2cccc(F)c12 | > 100 | > 100 | > 100 |  | > 100 | > 100 | > 100 |  | TGI [11]: > 100 µM
CN1C(=O)c2ccc3ccccc3c2C1=O |  |  |  |  |  |  |  | > 100 µM | 
COc1cc(/C=C/c2ccc(C)cc2)cc(OC)c1OC | 4.69 | 20.7 | > 100 | 13.9 | > 48.8 | > 100 | > 88.9 | 2.89 µM | 
CCC[CH2][Sn]([CH2]CCC)([O]C(=O)c1cc(OC)c(OC)cc1OC)[O][Sn]([CH2]CCC)([CH2]CCC)[O]C(=O)c1cc(OC)c(OC)cc1OC | 2.56 | 1.34 | 3.16 | 0.508 | 0.214 | 1.26 | 1.7 |  | GI50 [1]: 1.21 µM; GI50 [2]: 0.253 µM; GI50 [11]: 0.158 µM; TGI [11]: 0.365 µM; GI50 [3]: 1.78 µM; GI50 [4]: 0.196 µM; GI50 [5]: 0.0599 µM; GI50 [6]: 0.314 µM; GI50 [7]: 0.347 µM

SMILES | TGI [1] [µM] | TGI [2] [µM] | TGI [3] [µM] | TGI [4] [µM] | TGI [5] [µM] | TGI [6] [µM] | TGI [7] [µM] | TGI [9] | also measured
C/C(CC(=O)NCCc1ccccc1)=N\NS(=O)(=O)c1ccc(C)cc1 | > 100 | > 100 |  | > 100 | > 100 | > 100 | > 100 |  | TGI [11]: > 100 µM
CC(C)/C=C1\CCC(CN2CCOCC2)C1=O (centres undefined) | 38.2 | 8.86 | 31.8 | 33.4 | 8.24 |  | > 57.2 |  | 
O=C(O)C(Cc1cnc[nH]1)N1C(=O)c2ccccc2C1=O (centres undefined) |  |  |  |  |  |  |  | > 100 µM | 
CCOC(=O)NC(=O)c1cn(CCN2CCN(C(=O)CNC(=O)CNC(=O)Cn3cc(C(=O)NC(=O)OCC)c(=O)[nH]c3=O)CC2)c(=O)[nH]c1=O | > 100 | > 100 | > 100 | > 100 | > 100 | > 100 | > 100 |  | 
COC1C(OC(=O)c2ccc(C)[nH]2)C(O)C(Oc2ccc3c(O)c(NC(=O)c4c[nH]c(C(=O)Nc5c(O)c6ccc(OC7OC(C)(C)C(OC)C(OC(=O)c8ccc(C)[nH]8)C7O)c(C)c6oc5=O)c4C)c(=O)oc3c2C)OC1(C)C (centres undefined) | 15.6 | 6.08 | 3.37 |  | 8.03 | 6.75 |  |  | 
N#C/C(=C1\SCC(=O)N1c1ccccc1)c1nc2ccccc2[nH]1 | > 100 | > 100 |  | > 100 | > 100 | > 100 | > 100 |  | 
O=C(/C=C(\O)C(=O)O)/C=C(\O)c1ccccc1 | > 100 | > 100 | > 100 | > 100 | > 100 | > 100 | > 100 |  | GI50 [1]: > 1 µM; GI50 [4]: > 1 µM; GI50 [5]: > 1 µM; GI50 [6]: > 100 µM; GI50 [7]: > 1 µM
Cc1ccc(S(=O)(=O)N/N=C(\c2nc3ccc(Cl)cc3[nH]c2=O)C(O)c2ccco2)cc1 (centres undefined) | > 100 | > 100 | > 100 |  | > 100 | > 100 | > 100 |  | 
O=C1NC(N/N=C\C(O)C(O)C(O)C(O)CO)=N/C1=C/c1ccccc1 (centres undefined) |  |  |  |  |  |  |  | > 100 µM and 31.6 µM | GI50 [9]: 89 µM and 15.7 µM and > 100 µM
OC1(c2ccccc2)C2CC=CC2C1(c1ccccc1)c1ccccc1 (centres undefined) |  |  |  |  |  |  |  | > 100 µM | 
COc1ccccc1N=Nc1c(-c2ccccc2)nn(C(=O)CC(=O)Nc2cccc(C)c2)c1-c1ccccc1 | 88.1 | > 100 | > 100 | 61.5 | > 100 | 77.1 | > 100 |  | TGI [11]: > 100 µM
C#CC1(O)CCC2C3CCc4cc(Oc5nc(F)nc(-c6c7ccccc7c7n6CCS7)n5)ccc4C3CC[C@@]21C (some centres undefined) | > 100 | > 100 |  | > 100 | 57.3 | 44.7 | > 100 |  | 
O=c1cccccc1[O-].O=c1cccccc1[O-].O=c1cccccc1[O-].[Eu+3] | > 100 | > 100 |  |  |  |  |  |  | GI50 [1]: 27.2 µM; GI50 [2]: 24 µM
O=S(=O)(NC1CCCCC1)c1ccc2c(c1)OCCOCCOCCOCCO2 |  |  |  |  |  |  |  | > 100 µM | 
C=CO/N=[N+](\[O-])N(CC)CC |  |  |  |  |  |  |  | > 100 µM | 
[N-]=[N+]=NC(c1cn(C2CC(O)C(CO)O2)c(=O)[nH]c1=O)C(Cl)Br (centres undefined) | > 100 | > 100 | > 100 |  | > 100 | > 100 | > 100 |  | 
Cc1cc(N(CCC#N)S(=O)(=O)c2ccccc2)ccc1/C=C1\N=C(c2ccc(Cl)cc2)OC1=O | > 100 | > 100 |  | > 100 | > 100 | > 100 |  |  | 
Cc1c(C(=O)C/C(=N/NC(=O)c2ccccc2)C(=O)Nc2ccc(Cl)cc2)[n+](=O)c2ccccc2n1[O-] |  | > 100 | > 100 | > 100 | > 100 | > 100 |  |  | TGI [11]: > 100 µM
CC(C)C1CO[C@]2(C)CCC(=O)N12 (some centres undefined) | > 100 | > 100 | > 100 | > 100 | > 100 | > 100 | > 100 |  | TGI [11]: > 100 µM
CCO/C=C1\N=C(c2ccc(Cl)c(Cl)c2)OC1=O | > 100 | > 100 |  | > 100 | > 100 | > 100 | > 100 |  | 
